Values after ≈ are worked out from the molar mass of the structure shown.
Assay: not given
Settings: cited from earlier work

| Molecule | Solubility in Water |
| --- | --- |
| O=S(=O)([O-])c1cc(O)c2ccc3c(S(=O)(=O)[O-])cc(S(=O)(=O)[O-])c4ccc1c2c34.[Na+].[Na+].[Na+] [Pyranine] | 178 mg/mL |
| Lanaperl fast yellow | very soluble |
| CCN(CC)c1ccc2c(-c3ccc(S(=O)(=O)O)cc3S(=O)(=O)[O-])c3ccc(=[N+](CC)CC)cc-3oc2c1 [Sulforhodamine B] | 10 mg/mL (≈ 17.9 mM) |
| Sodium naphtionate | 240 mg/mL |
| Cc1ccc(N2C(=O)c3cccc4c(N)c(S(=O)(=O)[O-])cc(c34)C2=O)cc1.[Na+] [Lissamine FF] | 40 mg/mL |
| O=C(O)c1c(Cl)c(Cl)c(Cl)c(Cl)c1-c1c2cc(I)c(=O)c(I)c-2oc2c(I)c(O)c(I)cc12 [Bengal rose] | 100 mg/mL (≈ 103 mM) |
| Erythrosine | 20 mg/mL |
| O=S(=O)([O-])c1ccccc1C=Cc1ccc(-c2ccc(C=Cc3ccccc3S(=O)(=O)[O-])cc2)cc1.[Na+].[Na+] [Tinopal CBS-X] | 25 mg/mL |
| O=C(O)c1ccccc1-c1c2cc([N+](=O)[O-])c(=O)c(Br)c-2oc2c(Br)c(O)c([N+](=O)[O-])cc12 [Eosin B] | 40 mg/mL (≈ 69 mM) |
| Amidorhodamine G | very soluble |

Assay: Preliminary evaluation of uranine fluorescence stability (pH, chlorine)
Format: physicochemical
Settings: about 1-4 ppm of free chlorine
Protocol: Fluorescent molecular markers are subjected to screening criteria, including low toxicity, low background fluorescence in water, economic feasibility for long term use, and commercial availability. Screening criteria are also based on experiments, including stability with light exposure, strong fluorescent intensity, stability under various pH conditions, and stability under chlorine exposure.
Uranine stock solutions were prepared from reagent-grade uranine powder (Fisher Scientific, Pittsburgh, Pa.) dissolved in ultra-pure deionized water from a Milli-Q water purification system (Millipore Corp., San Jose, Calif.). RO desalting runs were conducted using low salinity potable tap water (average reported total dissolved solids (TDS) of about 265 mg/l, TOC of about 1.7 mg/l, and total hardness of about 113 mg/l as CaCO3).

| Molecule | chlorine tolerance of fluorescence |
| --- | --- |
| O=C([O-])c1ccccc1-c1c2ccc(=O)cc-2oc2cc([O-])ccc12.[Na+].[Na+] [Uranine] | high level of chlorine tolerance |

Same assay, conditions: typical RO process pH operating range, pH of about 6-8

| Molecule | stability of fluorescence intensity with pH |
| --- | --- |
| O=C([O-])c1ccccc1-c1c2ccc(=O)cc-2oc2cc([O-])ccc12.[Na+].[Na+] [Uranine] | stable fluorescence intensity |
